Conditions in all cases: at 10 µM
Test [1] deals with Ephrin type-A receptor 4 (Homo sapiens, UniProt P54764). In words: Selectivity interaction (KinomeScan (DiscoverX)) EUB0000655a EPHA4.
Test [2] deals with T1, Ephrin type-A receptor 3 (Homo sapiens) (UniProt P29320).
T1 sequence (whole entry): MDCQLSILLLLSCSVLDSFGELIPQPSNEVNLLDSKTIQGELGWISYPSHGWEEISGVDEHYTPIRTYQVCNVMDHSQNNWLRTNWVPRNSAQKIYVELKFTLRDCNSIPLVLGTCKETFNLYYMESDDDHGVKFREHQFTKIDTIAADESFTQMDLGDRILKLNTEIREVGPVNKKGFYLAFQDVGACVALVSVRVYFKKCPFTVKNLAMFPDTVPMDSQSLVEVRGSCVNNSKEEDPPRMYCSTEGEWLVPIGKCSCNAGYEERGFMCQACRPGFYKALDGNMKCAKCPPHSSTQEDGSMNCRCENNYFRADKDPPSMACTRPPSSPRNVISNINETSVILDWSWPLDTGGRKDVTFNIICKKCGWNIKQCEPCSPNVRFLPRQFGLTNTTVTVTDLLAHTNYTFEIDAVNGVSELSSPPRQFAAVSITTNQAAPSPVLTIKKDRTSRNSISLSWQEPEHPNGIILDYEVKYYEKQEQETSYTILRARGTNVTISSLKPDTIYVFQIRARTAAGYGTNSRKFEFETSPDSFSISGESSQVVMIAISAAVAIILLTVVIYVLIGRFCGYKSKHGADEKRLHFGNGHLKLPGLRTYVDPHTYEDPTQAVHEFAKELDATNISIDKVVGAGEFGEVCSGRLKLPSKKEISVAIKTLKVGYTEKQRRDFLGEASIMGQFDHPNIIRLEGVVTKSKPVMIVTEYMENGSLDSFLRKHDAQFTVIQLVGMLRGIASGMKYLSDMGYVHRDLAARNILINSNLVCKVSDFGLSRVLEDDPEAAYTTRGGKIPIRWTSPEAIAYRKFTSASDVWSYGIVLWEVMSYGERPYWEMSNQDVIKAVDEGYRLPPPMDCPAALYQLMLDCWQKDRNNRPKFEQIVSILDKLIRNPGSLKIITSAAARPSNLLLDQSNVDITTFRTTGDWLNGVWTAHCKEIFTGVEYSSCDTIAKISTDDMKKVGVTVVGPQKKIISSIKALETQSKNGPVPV
In words: Selectivity interaction (KinomeScan (DiscoverX)) EUB0000092b EPHA3.

Test [3] concerns the target T2, Serine/threonine-protein kinase ULK1 (Homo sapiens) (UniProt O75385).
T2 sequence (whole entry): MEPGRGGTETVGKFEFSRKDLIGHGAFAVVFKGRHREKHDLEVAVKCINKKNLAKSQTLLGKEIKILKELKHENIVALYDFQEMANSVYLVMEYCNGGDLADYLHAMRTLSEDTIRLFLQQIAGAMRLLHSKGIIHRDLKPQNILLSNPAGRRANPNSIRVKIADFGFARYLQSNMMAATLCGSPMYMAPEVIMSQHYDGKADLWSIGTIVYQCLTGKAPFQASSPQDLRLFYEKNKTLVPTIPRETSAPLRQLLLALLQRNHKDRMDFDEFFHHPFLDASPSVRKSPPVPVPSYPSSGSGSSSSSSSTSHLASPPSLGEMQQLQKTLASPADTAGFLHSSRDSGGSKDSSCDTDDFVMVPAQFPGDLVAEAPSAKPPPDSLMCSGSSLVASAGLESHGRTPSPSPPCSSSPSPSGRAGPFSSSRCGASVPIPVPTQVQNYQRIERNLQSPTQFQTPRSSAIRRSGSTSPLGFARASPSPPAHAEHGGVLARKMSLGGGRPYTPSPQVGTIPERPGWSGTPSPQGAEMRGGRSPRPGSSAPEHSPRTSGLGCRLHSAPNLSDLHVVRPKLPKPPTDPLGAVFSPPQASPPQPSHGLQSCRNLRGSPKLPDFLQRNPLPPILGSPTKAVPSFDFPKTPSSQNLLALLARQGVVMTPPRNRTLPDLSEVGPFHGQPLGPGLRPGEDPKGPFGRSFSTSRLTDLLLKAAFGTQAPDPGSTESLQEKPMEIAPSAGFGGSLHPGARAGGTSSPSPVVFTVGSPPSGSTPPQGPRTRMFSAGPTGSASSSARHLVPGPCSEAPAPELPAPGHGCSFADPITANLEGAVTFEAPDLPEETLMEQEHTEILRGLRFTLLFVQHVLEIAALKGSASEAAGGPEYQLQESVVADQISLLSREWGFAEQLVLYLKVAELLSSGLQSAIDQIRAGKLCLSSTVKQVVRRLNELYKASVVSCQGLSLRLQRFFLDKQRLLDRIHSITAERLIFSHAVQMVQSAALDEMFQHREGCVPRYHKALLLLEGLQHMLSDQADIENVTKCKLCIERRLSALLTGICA
In words: Selectivity interaction (KinomeScan (DiscoverX)) EUB0000092b ULK1.

The target of test [4] is T3, Serine/threonine-protein kinase TNNI3K (Homo sapiens) (UniProt Q59H18).
T3 sequence (whole entry): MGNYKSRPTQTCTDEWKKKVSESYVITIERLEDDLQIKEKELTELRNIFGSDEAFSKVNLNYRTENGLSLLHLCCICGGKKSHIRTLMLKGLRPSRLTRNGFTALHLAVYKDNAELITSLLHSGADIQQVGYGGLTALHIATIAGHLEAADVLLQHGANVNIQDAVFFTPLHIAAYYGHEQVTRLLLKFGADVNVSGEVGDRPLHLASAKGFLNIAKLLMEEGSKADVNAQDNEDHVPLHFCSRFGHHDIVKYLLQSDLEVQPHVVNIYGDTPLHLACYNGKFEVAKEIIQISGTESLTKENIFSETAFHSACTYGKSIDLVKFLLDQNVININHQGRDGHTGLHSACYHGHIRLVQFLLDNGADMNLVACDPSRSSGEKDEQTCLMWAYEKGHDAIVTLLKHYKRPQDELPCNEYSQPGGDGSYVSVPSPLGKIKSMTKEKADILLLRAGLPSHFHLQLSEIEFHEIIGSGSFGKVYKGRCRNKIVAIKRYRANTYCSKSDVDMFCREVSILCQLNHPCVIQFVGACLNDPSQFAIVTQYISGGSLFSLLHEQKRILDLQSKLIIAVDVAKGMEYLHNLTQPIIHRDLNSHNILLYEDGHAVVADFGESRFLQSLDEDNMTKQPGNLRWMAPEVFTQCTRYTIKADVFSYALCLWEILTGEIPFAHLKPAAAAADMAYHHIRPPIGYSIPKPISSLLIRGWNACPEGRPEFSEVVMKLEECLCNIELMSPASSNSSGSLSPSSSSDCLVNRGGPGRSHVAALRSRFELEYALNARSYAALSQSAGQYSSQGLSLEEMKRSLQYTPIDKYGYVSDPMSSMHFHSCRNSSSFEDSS
In words: Selectivity interaction (KinomeScan (DiscoverX)) EUB0000092b TNNI3K.

Chain of Ephrin type-A receptor 4 (P54764 whole entry): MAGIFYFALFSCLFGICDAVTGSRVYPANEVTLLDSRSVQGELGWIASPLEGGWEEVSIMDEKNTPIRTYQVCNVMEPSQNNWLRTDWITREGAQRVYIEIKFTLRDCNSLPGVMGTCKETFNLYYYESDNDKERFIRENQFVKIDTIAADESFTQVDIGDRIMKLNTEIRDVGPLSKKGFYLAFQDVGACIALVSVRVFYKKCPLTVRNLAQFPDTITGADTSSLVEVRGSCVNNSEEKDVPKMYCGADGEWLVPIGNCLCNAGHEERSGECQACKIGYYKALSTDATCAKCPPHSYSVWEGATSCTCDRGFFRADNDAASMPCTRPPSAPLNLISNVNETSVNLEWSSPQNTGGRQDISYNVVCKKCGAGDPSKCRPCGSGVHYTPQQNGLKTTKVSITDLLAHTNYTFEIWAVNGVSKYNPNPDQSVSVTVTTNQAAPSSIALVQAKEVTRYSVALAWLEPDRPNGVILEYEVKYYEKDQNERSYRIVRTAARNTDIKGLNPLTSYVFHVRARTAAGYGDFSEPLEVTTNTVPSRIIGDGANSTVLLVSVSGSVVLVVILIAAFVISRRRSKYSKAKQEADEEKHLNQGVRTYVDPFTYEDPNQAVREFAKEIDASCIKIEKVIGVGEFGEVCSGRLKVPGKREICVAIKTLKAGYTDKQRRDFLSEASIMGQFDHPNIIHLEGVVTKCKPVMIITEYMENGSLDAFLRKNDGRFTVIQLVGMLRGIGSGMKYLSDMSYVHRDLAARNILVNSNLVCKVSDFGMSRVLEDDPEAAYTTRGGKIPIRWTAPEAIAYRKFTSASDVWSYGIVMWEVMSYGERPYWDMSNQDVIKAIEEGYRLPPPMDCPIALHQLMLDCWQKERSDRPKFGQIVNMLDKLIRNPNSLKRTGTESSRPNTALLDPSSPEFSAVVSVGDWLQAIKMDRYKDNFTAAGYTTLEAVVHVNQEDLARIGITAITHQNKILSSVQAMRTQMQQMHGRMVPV

`CN(C)CCOc1ccc(-c2nc(-c3ccncc3)c(-c3ccc4c(c3)CC/C4=N\O)[nH]2)cc1` showed a % of control in test [1] of 100%.
Consider `CCC(=O)N1CCN(c2ccc(-n3c(=O)ccc4cnc5ccc(-c6cnc7ccccc7c6)cc5c43)cc2C(F)(F)F)CC1`, for which the % of control in test [2] was 70%; in test [3] it was 100%; in test [4] it was 66%.

(Values after ChEMBL document CHEMBL5465560, “Selectivity Literature for EUbOPEN Chemogenomic Library” (2024).)
